Measured values reported in publication PMC5063900, “A phase 1 study of the safety, tolerability, pharmacokinetics, and pharmacodynamics of TAK-063, a selective PDE10A inhibitor” (Psychopharmacology, 2016).

Assay: Food effect on pharmacokinetics, 100 mg fed vs fasting
Type: in vivo, human
Method: Healthy Japanese and non-Japanese subjects between 18 and 55 years of age were recruited to participate in the study. Criteria for exclusion included prior treatment with any investigational compound within 30 days of the first TAK-063 dose, a positive test for drugs of abuse or nicotine, and an increased risk for suicide. Subjects were randomized into 1 of 6 dose cohorts (3, 10, 30, 100, 300, and 1000 mg), with each cohort containing 11 TAK-063 subjects (five Japanese, six non-Japanese) and three placebo subjects (one Japanese, two non-Japanese) receiving a single dose under fasting conditions. […] Plasma concentrations of TAK-063 and its metabolite M-I were subsequently measured by validated liquid chromatography-tandem mass spectrometry with a validated range of 0.5 to 1000 ng/mL for both analytes. The PK parameters analyzed for TAK-063 and its metabolite M-I in plasma and urine included area under the plasma concentration-time curve from time 0 to infinity (AUC (0-inf)), maximum observed plasma concentration (C max), time to reach C max (T max), terminal elimination half-life (T 1/2), oral clearance (CL/F), volume of distribution (Vz/F), and renal clearance (CLr). […] A power model was used to evaluate dose proportionality by race for fasted subjects; in the event of no observed race effect, dose proportionality was assessed for all subjects. […]

For `COc1cn(-c2ccc(-n3cccn3)cc2F)nc(-c2ccnn2-c2ccccc2)c1=O` [TAK-063], the “Median T max” value (fed (standard meal)) was 6 h and the “Oral bioavailability, fed relative to fasting” value (standard meal) was “approximately 2 fold”.
